Laboratory results as given in patent US10632134B2, “Cannabinoid receptor modulators” (Arena Pharmaceuticals, Inc., priority 2011, dated 2020).

What was measured:
[1] = Dynamic moisture-sorption (DMS) analysis; format: physicochemical
Procedure: Example 9: Dynamic Moisture-Sorption Analysis
A dynamic moisture-sorption (DMS) study was conducted using a dynamic moisture-sorption analyzer, VTI Corporation, SGA-100. The instrument was calibrated using polyvinyl pyrrolidone (PVP) and NaCl. Samples were prepared for DMS analysis by placing 5 mg to 20 mg of a sample in a tared sample holder. The sample was placed on the hang-down wire of the VTI balance. A drying step was run, typically at 40° C. and 0.5-1% RH for 1 h. The isotherm temperature is 25° C. Defined % RH holds typically ranged from 10% RH to 90% RH, with intervals of 10 to 20% RII. A % weight change smaller than 0.010% over 10 min, or up to 2 h, whichever occurred first, was required before continuing to the next % RH hold. The water content of the sample equilibrated as described above was determined at each % RH hold.

[2] = system: Paclitaxel-induced allodynia; assay: Paclitaxel-induced allodynia in Sprague Dawley rats (von Frey assay); format: in vivo
Procedure: Example 5: Paclitaxel-induced Allodynia in Sprague Dawley Rats
Therapy however is often associated with the unwanted side affects of painful peripheral neuropathy.
Male Sprague Dawley rats [200-250 g] (Harlan Laboratories Inc., Livermore, Calif.) were housed three per cage and maintained in a humidity-controlled (40-60%) and temperature-controlled (68-72° F.) facility on a 12 h:12 h light/dark cycle (lights on at 6:30 am) with free access to food (Harlan Teklad, Orange, Calif., Rodent Diet 8604) and water. Rats were allowed one week of habituation to the animal facility before starting treatment.
Rats were treated intraperitoneally, with 2 mg/kg of paclitaxel (Sigma Aldrich, Saint Louis, Mo.) in 10% Cremophor vehicle (500 μL) on days 0, 2, 4, and 6.
Tactile allodynia was tested using von Frey filaments. Briefly, the von Frey assay was performed using the standardized up down method with von Frey filaments, that determine the tactile sensitivity of the paw. By applying the increasingly or decreasingly thicker filaments to the paw in a logarithmic scale of actual force, a linear scale of perceived intensity is determined.
Eight days after the start of paclitaxel dosing, a baseline measurement (von Frey assay) was performed prior to dosing of compounds. […] As a positive control, rats were dosed intraperitoneally with 100 mg/kg gabapentin in water. […]

SMILES	Weight (% Change) ([1]; Sample RH […], elapsed time 46.6 min, 25.46)	Weight (% Change) ([1]; adsorption, Sample RH 29.94%, elapsed time 71.4 min)	Weight (% Change) ([1]; adsorption, Sample RH 49.86%, elapsed time 91.1 min)	Weight (% Change) ([1]; adsorption, Sample RH 69.77%, elapsed time 111.2 min)	Weight (% Change) ([1]; adsorption, Sample RH 79.70%, elapsed time 129.1 min)	Weight (% Change) ([1]; adsorption, Sample RH 89.72%, elapsed time 160.1 min)	DMS weight change ([1]; adsorption/desorption isotherm, from about 10% relative humidity (RH) to about 90% RH)	DMS weight change ([1]; after a 10% RH to 90% RH back to 10% RH cycle)	Weight (% Change) ([1]; desorption, Sample RH 10.06%, elapsed time 234.4 min)	Weight (% Change) ([1]; desorption, Sample RH 29.99%, elapsed time 218.6 min)	Weight (% Change) ([1]; desorption, Sample RH 50.07%, elapsed time 200.1 min)	Weight (% Change) ([1]; desorption, Sample RH 70.11%, elapsed time 180.1 min)	paw withdrawal threshold (PWT) ([2]; 10 mg/kg orally in PEG400, paclitaxel treated rats, von Frey assay 30, 60 and 180 minutes after dosing, in comparison with vehicle and gabapentin)	time of maximum efficacy post-dosing ([2]; 10 mg/kg orally, paclitaxel treated rats, von Frey assay time course) [h]
CC(C)(C)[C@@H](CO)NC(=O)c1nn(-c2c[n+]([O-])ccn2)c2c1C[C@@H]1C[C@H]21 [Compound 699 (Anhydrous Form), (1aS,5aS)-2-(4-Oxy-pyrazin-2-yl)-1a,2,5,5a-tetrahydro-1H-2,3-diaza-cyclopropa[a]pentalene-4-carboxylic Acid ((S)-1-Hydroxymethyl-2,2-dimethyl-propyl)-amide]	0	0.151	0.282	0.482	0.581	0.762	1.0% or less weight change from about 10% relative humidity	(RH) to about 90% RH; and about 0.1% or less weight change	0.080	0.181	0.364	0.526		
CC(C)(CO)NC(=O)c1nn(-c2ccc(F)cc2F)c2c1C[C@H]1C[C@@H]21 [Compound 493, (1aR,5aR)-2-(2,4-Difluoro-phenyl)-1a,2,5,5a-tetrahydro-1H-2,3-diaza-cyclopropa[a]pentalene-4-carboxylic Acid (2-Hydroxy-1,1-dimethyl-ethyl)-amide]													increase	1
